Measurements reported in patent publication US20240409519A1, “HYDROGENATED QUINOXALINES” (OTSUKA PHARMACEUTICAL CO., LTD., priority 2021, published 2024).

Legend:
serotonin (5-HT) uptake = target: T1, serotonin (5-HT) uptake (Rattus norvegicus, UniProt P31652); assay: Serotonin (5-HT) uptake inhibitory activity in rat brain synaptosome; assay type: biochemical; details: rat frontal cortex synaptosome, tritium-labeled 5-HT 8 nM; read-out: IC50 (nM), serotonin (5-HT) uptake inhibition
T1 construct: used as crude synaptosomal fraction; from tissue; host or cells: rat frontal cortex, crude synaptosomal fraction
Procedure: Male Wistar rats were decapitated, each brain was removed, and the frontal cortex was cut out. […] The homogenate was centrifuged at 1000 g at 4° C. for 10 minutes, and the supernatant was further centrifuged at 20000 g at 4° C. for 20 minutes. The pellet was suspended in an incubation buffer (20 mM Hepes buffer (pH 7.4) containing 10 mM glucose, 145 mM sodium chloride, 4.5 mM potassium chloride, 1.2 mM magnesium chloride and 1.5 mM calcium chloride) and used as crude synaptosomal fraction.
Each well of a 96-well round-bottom plate was used for the uptake reaction in a total volume of 200 μL solution containing purgurin (final concentration 10 μM) and ascorbic acid (final concentration 0.2 mg/mL). In other words, solvent, unlabeled 5-HT or step-diluted test compound was added to each well, and one-tenth of the final volume of the synaptosomal fraction was added to each well, followed by pre-incubation at 37° C. for 10 minutes, and then tritium-labeled 5-HT solution (final concentration 8 nM) was added and the uptake reaction was initiated at 37° C. After 10 minutes, the uptake reaction was terminated by suction filtration onto a 96-well glass fiber filter plate. The filters were rinsed with cold physi-ological saline solution, dried thoroughly, and micro scintillation 0 (Perkin-Elmer) was added thereto. Then, the residual radioactivity on the filters was measured.
The uptake value when only solvent was added was set as 100%, the uptake value when unlabeled 5-HT (final concentration 10 μM) was added as 0% (nonspecific uptake value), and the 50% inhibitory concentration was calculated from the concentration of the test compound and its inhibitory activity.

CYP2D6 = target: T2, CYP2D6 (Homo sapiens, UniProt P10635); assay: CYP inhibition test (1): inhibition rate (%) at one concentration, CYP2D6; assay type: in vitro ADME; details: human liver microsomes, pH 7.4, probe bufuralol (0.01 mmol/L); test compound 0.01 mmol/L, human liver microsome 0.1 mg/mL, substrate bufuralol, 37° C. 10 minutes; read-out: inhibition rate (%) 2D6
T2 construct: a human liver microsome solution containing three CYP-specific substrates; from tissue; host or cells: human liver microsomes
Procedure: (§1) A metabolic reaction was initiated by adding and mixing a test compound solution (final concentration 0.01 mmol/L) and a NADH/NADPH solution (final concentration 1 mmol/L) to a human liver microsome solution containing three CYP-specific substrates (final concentration 100 mmol/L potassium phosphate buffer solution (pH 7.4), 5 mmol/L magnesium chloride, 0.1 mg/mL human liver microsome, 0.005 mmol/L diclofenac (for CYP2C9), 0.01 mmol/L bufuralol (for […]), 0.005 mmol/L midazolam (for CYP3A4)). As an internal standard solution, a solution of each of stable isotopes of the metabolites (50 ng/mL [13C6] hydroxy diclofenac, 5 ng/mL [2H9] hydroxy bufuralol, and 5 ng/mL [13C6] hydroxy midazolam (all stable isotopes)) in methanol was prepared and used as a quenching solution.
(§2) Specifically, a metabolic reaction was initiated by adding and mixing 2 μL of a solution of a test compound in acetonitrile (or acetonitrile as a control) to 178 μL of a human liver microsome solution in ice water, followed by preincubation at 37° C. for 1 minute, and then adding 20 μL of a NADH/NADPH solution thereto. After incubation at 37° C. for 10 minutes, 50 μL of the reaction mixture was taken, and then it was added and mixed to 500 μL of a quenching solution to quech the reaction. The mixture was centrifuged (6130 g, 4° C., 10 minutes) and the supernatant was used as a sample for LC-MS/MS.
(§3) Peak area ratio ([peak area of metabolite]/[peak area of corresponding stable isotope]) was calculated for a metabolite and a stable isotope of the metabolite as measurement object. By comparing the peak area ratio of each test compound solution with that of the control, the inhibition rate (%) of each CYP species for each test compound was calculated from (1-[peak area ratio of each test compound solution]/[peak area ratio of control])×100.

[1] = Metabolic stability test (human liver microsome, hepatic intrinsic clearance); assay type: in vitro ADME; details: human liver microsomes, pH 7.4; human liver microsome 0.2 mg/mL, test compound 0.001 mmol/L, 37° C., 0, 10 and 20 minutes
Procedure: A metabolic reaction was initiated by adding and mixing a test compound solution (final concentration 0.001 mmol/L) and a NADH/NADPH solution (final concentration 1 mmol/L) to a human liver microsome solution (final concentration 100 mmol/L potassium phosphate buffer solution (pH 7.4), 5 mmol/L magnesium chloride, 0.2 mg/ml, human liver microsome). A solution of the internal standard in methanol was prepared and used as a quenching solution.
Specifically, a metabolic reaction was initiated by adding and mixing 2.5 μL of a solution of a test compound in acetonitrile to 222.5 μL of a human liver microsome solution in ice water, followed by preincubation at 37° C. for 1 minute, and then adding 25 μL of a NADH/NADPH solution thereto.
The mixture was centrifuged (6130 g, 4° C., 10 minutes) and the supernatant was used as a sample for LC-MS/MS.
Peak area ratio ([peak area of test compound]/[peak area of internal standard]) was calculated for the test compound and the internal standard.
The residual ratio of the test compound was calculated from ([Ratio of peak areas at each reaction time]/[Ratio of peak areas at 0 minute reaction time]).

CYP2C9 = target: T3, CYP2C9 (Homo sapiens, UniProt P11712); assay: CYP inhibition test (1): inhibition rate (%) at one concentration, CYP2C9; assay type: in vitro ADME; details: human liver microsomes, pH 7.4, probe diclofenac (0.005 mmol/L); test compound 0.01 mmol/L, human liver microsome 0.1 mg/mL, substrate diclofenac, 37° C. 10 minutes; read-out: inhibition rate (%) 2C9
T3 construct: a human liver microsome solution containing three CYP-specific substrates; from tissue; host or cells: human liver microsomes
Procedure: as §1, §2, §3

T1 sequence (P31652 whole entry): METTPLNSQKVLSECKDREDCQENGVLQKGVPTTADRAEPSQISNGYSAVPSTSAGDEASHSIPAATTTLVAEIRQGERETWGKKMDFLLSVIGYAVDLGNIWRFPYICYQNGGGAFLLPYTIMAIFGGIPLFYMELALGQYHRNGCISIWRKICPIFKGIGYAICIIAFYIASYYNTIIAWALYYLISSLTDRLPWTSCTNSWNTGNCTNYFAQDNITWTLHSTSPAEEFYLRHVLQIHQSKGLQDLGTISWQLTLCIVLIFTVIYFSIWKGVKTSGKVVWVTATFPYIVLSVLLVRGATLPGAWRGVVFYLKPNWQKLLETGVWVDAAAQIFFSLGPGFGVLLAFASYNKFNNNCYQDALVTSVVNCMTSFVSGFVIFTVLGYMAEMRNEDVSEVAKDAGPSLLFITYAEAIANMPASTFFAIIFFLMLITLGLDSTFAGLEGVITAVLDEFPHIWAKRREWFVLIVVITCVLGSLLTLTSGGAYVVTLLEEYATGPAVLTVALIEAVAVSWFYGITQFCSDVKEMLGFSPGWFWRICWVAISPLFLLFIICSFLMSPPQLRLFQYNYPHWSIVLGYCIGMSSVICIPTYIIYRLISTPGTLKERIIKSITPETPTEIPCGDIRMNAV
T2 sequence (P10635 whole entry): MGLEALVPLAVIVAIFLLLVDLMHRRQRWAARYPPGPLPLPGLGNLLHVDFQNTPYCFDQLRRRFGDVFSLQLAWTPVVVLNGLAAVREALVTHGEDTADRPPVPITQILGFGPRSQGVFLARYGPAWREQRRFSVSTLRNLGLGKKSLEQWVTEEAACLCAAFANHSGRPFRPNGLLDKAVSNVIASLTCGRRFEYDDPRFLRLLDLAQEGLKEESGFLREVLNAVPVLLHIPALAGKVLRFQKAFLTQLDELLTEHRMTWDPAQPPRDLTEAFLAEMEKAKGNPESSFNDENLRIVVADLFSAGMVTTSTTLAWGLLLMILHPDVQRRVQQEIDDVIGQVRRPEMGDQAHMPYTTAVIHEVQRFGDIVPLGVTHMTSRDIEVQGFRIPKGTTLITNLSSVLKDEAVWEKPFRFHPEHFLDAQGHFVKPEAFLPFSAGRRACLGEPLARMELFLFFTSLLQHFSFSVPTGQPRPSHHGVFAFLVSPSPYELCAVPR
T3 sequence (P11712 whole entry): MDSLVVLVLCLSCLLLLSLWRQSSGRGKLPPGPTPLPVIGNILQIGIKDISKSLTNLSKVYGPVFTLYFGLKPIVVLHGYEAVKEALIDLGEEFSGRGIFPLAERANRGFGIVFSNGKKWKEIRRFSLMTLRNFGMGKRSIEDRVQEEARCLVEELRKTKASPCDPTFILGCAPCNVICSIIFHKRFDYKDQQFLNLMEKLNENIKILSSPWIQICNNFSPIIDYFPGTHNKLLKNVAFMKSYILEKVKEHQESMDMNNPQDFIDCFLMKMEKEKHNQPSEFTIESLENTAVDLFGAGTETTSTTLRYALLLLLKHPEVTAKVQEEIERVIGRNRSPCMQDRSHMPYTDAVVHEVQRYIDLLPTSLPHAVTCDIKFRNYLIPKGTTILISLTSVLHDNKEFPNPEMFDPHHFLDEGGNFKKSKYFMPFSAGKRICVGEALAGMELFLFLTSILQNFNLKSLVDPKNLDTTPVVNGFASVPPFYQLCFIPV

Compound	IC50 (serotonin (5-HT) uptake) [nM]	inhibition at 10 min, 0.01 mmol/L (CYP2D6) [%]	microsomal CLint at 0.001 mmol/L [1] [µL/min/mg]	inhibition at 10 min, 0.01 mmol/L (CYP2C9) [%]
OCCOc1c(F)cc(N2CC3(CCC3)N[C@H]3CCCC[C@@H]32)cc1Cl [Example 6]	6.1	15	< 50	-6.4
OCCOc1ccc(N2CC3(CCC3)N[C@H]3CCCC[C@@H]32)cc1 [Example 8]	10	20.1	< 50	8.1
COc1cc(N2CC3(CCC3)N[C@H]3CCCC[C@@H]32)ccc1OCCO [Example 11]	39.6	14.2	< 50	7.5
Cc1cc(N2CC3(CCC3)N[C@H]3CCCC[C@@H]32)cc(F)c1OCCO [Example 14]	5.8	20.5	< 50	13.6
C[C@@H]1CN(c2cc(F)c(OCCO)c(Cl)c2)[C@H]2CCCC[C@@H]2N1 [Example 17, 2-(2-chloro-6-fluoro-4-((3R,4aS,8aS)-3-methyloctahydroquinoxalin-1(2H)-yl)phenoxy)ethan-1-ol 1/2fumarate]	7.3	–	< 50	–
C[C@H]1CN(c2cc(F)c(OCCO)c(Cl)c2)[C@H]2CCCC[C@H]2N1 [Example 18]	73.1	–	< 50	–
C[C@@H]1CN(c2ccc(OC(F)(F)CO)c(Cl)c2)[C@H]2CCCC[C@@H]2N1 [Example 19]	62.7	5.9	< 50	5.8
CC1(C)CN(c2ccc(OC(F)(F)CO)cc2)[C@H]2CCCC[C@@H]2N1 [Example 20, 2-(4-((4aS,8aS)-3,3-dimethyloctahydroquinoxalin-1(2H)-yl)phenoxy)-2,2-difluoroethan-1-ol]	4.7	–	< 50	–
CC1(C)CN(c2ccc(OC(F)(F)CO)cc2)[C@@H]2CCCC[C@H]2N1 [Example 21]	89.9	–	< 50	–
COc1cc(N2CC(C)(C)N[C@H]3CCCC[C@@H]32)ccc1OC(F)(F)CO [Example 26]	18.1	–	< 50	–
CC1(C)CN(c2ccc(OCCO)c(Cl)c2)[C@H]2CCCC[C@@H]2N1 [Example 27, 2-(2-chloro-4-((4aS,8aS)-3,3-dimethyloctahydroquinoxalin-1(2H)-yl)phenoxy)ethan-1-ol]	7.6	–	< 50	–
CC1(C)CN(c2ccc(OCCO)c(Cl)c2)[C@@H]2CCCC[C@H]2N1 [Example 28]	55.1	–	< 50	–
Cc1cc(N2CC(C)(C)N[C@H]3CCCC[C@@H]32)ccc1OC(F)(F)CO [Example 31]	26.6	–	< 50	–
Cc1cc(N2CC(C)(C)N[C@@H]3CCCC[C@H]32)ccc1OC(F)(F)CO [Example 32]	98.3	–	< 50	–
CC1(C)CN(c2cc(F)c(OCCO)c(F)c2)[C@H]2CCCC[C@@H]2N1 [Example 34, 2-(4-((4aS,8aS)-3,3-dimethyloctahydroquinoxalin-1(2H)-yl)-2,6-difluorophenoxy)ethan-1-ol]	8.9	–	< 50	–
CC1(C)CN(c2cc(F)c(OCCO)c(F)c2)[C@@H]2CCCC[C@H]2N1 [Example 35]	71	–	< 50	–
CC1(C)CN(c2cc(F)c(OCCO)c(F)c2)[C@H]2CCCC[C@H]2N1 [Example 36]	60.1	–	< 50	–
CN1[C@H]2CCCC[C@@H]2N(c2ccc(OC(F)(F)CO)cc2)CC1(C)C [Example 37, 2,2-difluoro-2-(4-((4aS,8aS)-3,3,4-trimethyloctahydroquinoxalin-1(2H)-yl)phenoxy)ethan-1-ol]	87.4	–	< 50	–
CC1(C)CN(c2ccc(OCCO)c(Cl)c2)[C@H]2CCCC[C@H]2N1 [Example 44, 2-(2-chloro-4-((4aR,8aS)-3,3-dimethyloctahydroquinoxalin-1(2H)-yl)phenoxy)ethan-1-ol 1/2fumarate]	15.3	10.2	< 50	-11.4
Cc1cc(N2CC(C)(C)N[C@@H]3CCCC[C@@H]32)ccc1OC(F)(F)CO [Example 48]	57.4	-7.8	< 50	-0.7
CC1(C)CN(c2ccc(OCCO)c3occc23)[C@@H]2CCCC[C@@H]2N1 [Example 50]	7.7	41.8	< 50	-7.6
CC1(C)CN(c2ccc(OCCO)c3occc23)[C@H]2CCCC[C@H]2N1 [Example 51]	17	17	< 50	-8.3
CC1(C)CN(c2ccc(OCCO)c(F)c2)[C@H]2CCCC[C@H]2N1 [Example 52]	55	23	< 50	9.2
Cc1c(N2CC(C)(C)N[C@@H]3CCCC[C@@H]32)ccc(OC(F)(F)CO)c1F [Example 57]	30.3	14.9	58	9.3
Cc1cc(N2CC(C)(C)N[C@@H]3CCCC[C@@H]32)cc(F)c1OC(F)(F)CO [Example 58]	22.9	16.1	< 50	2.8
CC1(C)CN(c2ccc(OC(F)(F)CO)cc2F)[C@H]2CCCC[C@H]2N1 [Example 61, 2-(4-((4aR,8aS)-3,3-dimethyloctahydroquinoxalin-1(2H)-yl)-3-fluorophenoxy)-2,2-difluoroethan-1-ol 1/2fumarate]	9	16.1	< 50	6.8
CC1(C)CN(c2cc(Br)c(OCCO)cc2F)[C@H]2CCCC[C@H]2N1 [Example 62]	8.6	17.8	< 50	4.6
CC1(C)CN(c2ccc(OCCO)c(Br)c2F)[C@H]2CCCC[C@H]2N1 [Example 63]	5.1	19.2	84	1.1
